Where “and” joins values, the source holds several entries; their conditions need not be identical. Equal entries are not always repeated.
Conditions: Liquid, Transpiration method

CCCCN(CCCC)C(C)=O [N,N-dibutylacetamide]
Conditions | vapor or sublimation pressure
291.8 K | 0.0013 kPa
298.8 K | 0.00247 kPa
300.9 K | 0.00292 kPa
301.8 K | 0.00324 kPa
303.9 K | 0.00402 kPa
306.6 K | 0.00505 kPa
306.7 K | 0.00514 kPa
308.8 K | 0.00635 kPa
312.5 K | 0.00844 kPa
315.7 K | 0.0107 kPa
317.5 K | 0.01304 kPa
320.4 K | 0.01631 kPa
320.7 K | 0.01642 kPa
320.8 K | 0.01653 kPa
322.6 K | 0.01907 kPa
323.6 K | 0.02074 kPa
325.6 K | 0.02381 kPa
327.2 K | 0.02708 kPa
327.6 K | 0.0289 kPa
330.6 K | 0.03472 kPa and 0.03551 kPa
333.3 K | 0.04451 kPa
334.8 K | 0.04701 kPa
335.7 K | 0.05254 kPa
337.5 K | 0.05938 kPa
340.7 K | 0.0733 kPa
343.6 K | 0.09061 kPa

CCN(CC)C(C)=O [N,N-diethylacetamide]
Conditions | vapor or sublimation pressure
293.2 K | 0.05427 kPa
295.7 K | 0.06498 kPa
298.1 K | 0.07907 kPa
300.7 K | 0.09611 kPa
303.3 K | 0.1134 kPa
308.2 K | 0.1595 kPa and 0.1564 kPa
310.6 K | 0.1826 kPa
313.1 K | 0.218 kPa
313.2 K | 0.22 kPa
318.2 K | 0.3145 kPa and 0.3097 kPa
323.1 K | 0.4179 kPa
323.3 K | 0.4212 kPa
325.7 K | 0.4988 kPa
328.2 K | 0.5921 kPa and 0.5695 kPa
330.7 K | 0.6838 kPa
333.1 K | 0.8078 kPa
333.2 K | 0.771 kPa
335.7 K | 0.882 kPa
338.3 K | 1.032 kPa

CCCCCCN(CCCCCC)C(C)=O [N,N-dihexylacetamide]
Conditions | vapor or sublimation pressure [kPa]
319.4 K | 0.0004
322.4 K | 0.00053
325.5 K | 0.00071
328.4 K | 0.00091
329.2 K | 0.00098
331.5 K | 0.00123
332.4 K | 0.0013
332.5 K | 0.00136
335.5 K | 0.0017
338.5 K | 0.00228
342.2 K | 0.00302
346.4 K | 0.0043
349.5 K | 0.0056
350.4 K | 0.00612
353.3 K | 0.00738
353.4 K | 0.00736
356.3 K | 0.00918
359.2 K | 0.01148
360.3 K | 0.01247
362.3 K | 0.01466
364.2 K | 0.01684

CC(=O)N(C)C [N,N-dimethylethanamide]
Conditions | vapor or sublimation pressure
273.3 K | 0.03543 kPa and 0.03607 kPa and 0.035 kPa
274.7 K | 0.03924 kPa
275.9 K | 0.04222 kPa
276.5 K | 0.04528 kPa
276.9 K | 0.04668 kPa
277.3 K | 0.05063 kPa
278.2 K | 0.05175 kPa
278.6 K | 0.05303 kPa
279.7 K | 0.058 kPa
281.3 K | 0.06713 kPa and 0.07108 kPa
281.4 K | 0.06481 kPa
281.9 K | 0.06864 kPa
282.4 K | 0.07295 kPa
283 K | 0.07741 kPa
285.3 K | 0.0977 kPa
285.8 K | 0.09266 kPa
286.4 K | 0.09668 kPa
287.3 K | 0.1021 kPa
288.2 K | 0.1121 kPa
288.3 K | 0.1147 kPa
289.3 K | 0.1307 kPa
290.2 K | 0.1314 kPa
290.8 K | 0.1301 kPa
291.2 K | 0.1351 kPa
291.3 K | 0.1465 kPa
291.8 K | 0.1543 kPa
293.2 K | 0.1571 kPa
293.3 K | 0.1763 kPa
294.2 K | 0.1744 kPa
296.2 K | 0.2041 kPa
296.3 K | 0.2 kPa
297.2 K | 0.2169 kPa
297.3 K | 0.2291 kPa
298.1 K | 0.2275 kPa
298.2 K | 0.2301 kPa
300.2 K | 0.2612 kPa
300.7 K | 0.2666 kPa and 0.2829 kPa
301.3 K | 0.2983 kPa
302.2 K | 0.3174 kPa
302.7 K | 0.3279 kPa
303 K | 0.3058 kPa
303.2 K | 0.3248 kPa
304.7 K | 0.3758 kPa
305.2 K | 0.3538 kPa and 0.3944 kPa
305.6 K | 0.3795 kPa
308 K | 0.4422 kPa
308.1 K | 0.4305 kPa
310.6 K | 0.5041 kPa
313.1 K | 0.6025 kPa
313.2 K | 0.6035 kPa
315.7 K | 0.711 kPa
316.4 K | 0.7274 kPa
318.2 K | 0.8426 kPa
320.8 K | 0.9968 kPa
323.2 K | 1.115 kPa
323.3 K | 1.128 kPa
325.8 K | 1.285 kPa
328.3 K | 1.481 kPa

— the NIST ThermoML archive (doi:10.1016/j.fluid.2019.112241)
